The conditions of data set [1]: cited from earlier work.
The nature of data set [2]: Dynamic visual analysis (DVA) of ICG NIR fluorescence intensity, rectal lesion versus healthy background tissue. To be noted: for initial uptake of ICG relative to background tissue: 0.25 mg per kg intravenously, initial phase; for washout of contrast agent: at 25 to 30 minutes.
For data set [3] the following is noted: cited from earlier work. This is another data set of the same source.

For `CC1(C)C(/C=C/C=C/C=C/C=C2\N(CCCCS(=O)(=O)O)c3ccc4ccccc4c3C2(C)C)=[N+](CCCCS(=O)(=O)[O-])c2ccc3ccccc3c21` [ICG, indocyanine green], the water solubility entry in data set [1] is reported as “water-soluble but relatively hydrophobic”. Moreover, in data set [2] (benign lesions), the “initial uptake of ICG relative to background tissue” value is reported as “either synchronous with the background tissue or was ahead of the background tissue” and the “washout of contrast agent” value was “most of the ICG tends to washout”. In data set [2] (cancerous tissue), the “initial uptake of ICG relative to background tissue” value is “a definite lag in the initial uptake” and the “washout of contrast agent” value is “retains it for longer”. Also, the plasma protein binding entry in data set [3] (following intravenous injection) is recorded as “rapidly bound to plasma proteins with minimal leakage into the interstitium”. In data set [3] (intravenous injection), the “time of excretion by the liver in bile after injection” value is “about 8 min”.
